Data set [1] concerns H5V mouse endothelial cells. Nature of the data set: Phototoxicity (cytophototoxicity) on endothelial cells, Neutral Red viability. The class given is cell-based. The conditions noted are these: endothelial cell cultures, FIG. 3C. Here is the method:
(i) Cell culture. H5V mouse endothelial cells were cultured as monolayers in Dulbecco's modified Eagle's medium (DMEM)/F12 containing 25 mM HEPES, pH 7.4, 10% fetal calf serum (FCS), glutamine (2 mM), penicillin (0.06 mg/ml), and streptomycin (0.1 mg/ml) (hereinafter referred to as the “culture medium”). The cells were grown at 37° C. in an 8% CO2-humidified atmosphere.
(a) Cells. To determine the photodynamic efficacy, cells were cultured in 96-well plates (40×10^3/well) and incubated in the dark in culture medium containing increasing concentrations of sensitizers 5, 7, 9 and 11, for a period of 1 min to 8 h. Unbound sensitizer was removed by washing the cells once with fresh culture medium. The plates were illuminated at room temperature, from their bottom side, for 10 min (650<λ<800 nm, 12 J/cm^2). The light source was a 100 W Halogen lamp (Osram, Germany) equipped with a <650 nm cutoff and a 4-cm water filter. The cultures were placed in the culture incubator and cell survival was determined 24 h after illumination, by Neutral Red viability assay. Cell survival was calculated as the percent of the dye accumulated in the untreated controls. Triplicate determinations were conducted and representative experiments are shown. […]
The phototoxicity of compounds 5, 7, 9, and 11 on H5V mouse endothelial cells was determined as described in section (iv) (a) above. […]

In the next data set the test system is St. albus. Nature of the data set: Phototoxicity on Gram-positive bacteria, colony counting. The class given is cell-based. Here is the method: (§1) (ii) Bacterial cultures. Bacteria of strains St. albus and E. coli XL-1 were cultured in liquid LB medium (E. coli in LB containing 12.5 μg tetracyclin/ml) to a final density of OD600 nm=0.5-0.9 (1 OD=8×10^8 bacteria/ml). The bacteria were spun down (4000×g, 5 min.) and resuspended in PBS.
(§2) (b) Bacterial. To determine the photodynamic efficacy, bacteria were diluted to aliquots of 300 μl containing about 10^7 bacteria, and incubated with increasing concentrations of sensitizer in plastic test tubes in the dark for 1 h at room temperature, and then illuminated at 70 mW/cm^2 for 15 min. Samples of the treated bacteria cultures were subsequently plated at different dilutions (50-200 bacteria/plate) on LB agar and cultured for 24 h at 37° C. for determination of bacterial survival by colony counting. Triplicate determinations were conducted and representative experiments are shown.
(§3) The phototoxicity of positively-charged compound 5 was tested on Gram-positive St. albus and Gram-negative E. coli bacteria in comparison to the negatively-charged Pd 3^1-oxo-15-methoxycarbonylmethyl-Rhodobacteriochlorin 13^1-(2-sulfoethyl)amide dipotassium salt (described in PCT/IL03/00973). Bacteria were incubated with increasing concentrations of the sensitizers for 1 h and illuminated or kept in the dark. […] Gram-positive bacteria St. albus, was 100 times more sensitive to compound 5 than Gram-negative E. coli. No phototoxicity was observed when bacteria were incubated and treated with the same sensitizers' concentration range without illumination (dark controls).

In the next data set the test system is E. coli. Nature of the data set: Phototoxicity on Gram-negative bacteria, colony counting. The class given is cell-based, E. coli XL-1. Here is the method:
as §1, §2, §3

Data set [2] deals with human serum albumin (HSA) (Homo sapiens, UniProt P02768). Briefly: Interaction with human serum albumin (aggregation state, spectrophotometric). The conditions noted are these: in PBS, 3.2×10^−4 M, 0.1-5 mg HSA. The data set is classed as binding. As to the method: A solution of 5 in PBS (3.2×10^−4 M, 100 μl) was mixed with various amounts of human serum albumin (0.1, 0.5, 1, 2, and 5 mg). Aggregation, at high concentrations of 5 in aqueous solutions, is reflected by splitting of the original monomeric peak at 747 nm into two new peaks at 720 and 760 nm. The state of aggregation was followed spectrophotometrically over the range of albumin concentrations at room temperature in a 0.1 mm cuvette. The absorbance intensity values at the peak wavelengths were taken as an indication of the aggregation.
Addition of the albumin caused disaggregation of the sensitizer 5 in PBS (FIG. 2). The absorption spectra of the solutions containing increasing amounts of albumin resembled the spectrum of the monomeric pigment 5 in methanol.

The nature of data set [3]: Biodistribution in rat organs and tissues (fluorescence). The data set is classed as in vivo, Wistar rats. Particulars: 0.6 mg/kg i.v. Here is the method:
(x) Biodistribution. Wistar rats (n=2) were anesthetized and compound 5 of the invention (0.6 mg/kg) was injected into their tail vein. The control group (n=2) was not treated with the sensitizer. At 30 min and 24 h after injection, rats (one for each time-point), were sacrificed and samples of the indicated organs or tissues (heart, liver, lung, spleen, kidney, brain, testes, skin, muscle and fat) were collected into and weighed in pre-weighted vials, immediately frozen on dry ice and stored at […] in the dark until analyzed. For examination, each sample was thawed, weighed again, and homogenized (Polytron, Kinematica GmbH or Ultra-Turrax) in ice-cold water. The vials were then frozen in liquid nitrogen and lyophilized. The lyophilized samples were extracted with methanol (5-10 ml) in an amount equivalent to the tissue weight, and then vortexed and centrifuged. The supernatant was collected and analyzed and fluorescence measured as described in (ix) above. The fluorescence of methanol and of tissue extracts from control animals were used as blanks.

A short description of data set [4]: Pharmacokinetics in rat blood after i.v. injection (fluorescence). The data set is classed as in vivo, Wistar rats. Here is the method:
(ix) Pharmacokinetics. Anesthetized Wistar rats (n=3 per each time-point) were i.v. injected with compound 5 of the invention (0.6 mg/kg). […] Control blood samples were collected from three untreated rats and treated accordingly. The test tubes containing the blood samples were weighed again in order to calculate the exact sample mass. The blood samples were then frozen in liquid nitrogen and lyophilized. The lyophilized samples were extracted with methanol (1 ml each), vortexed and centrifuged. The supernatant was collected and analyzed by fluorescence measurements (Spectrofluorimeter SLM-8000, Aminco USA). The fluorescence emission spectra were recorded in a range of 650-850 nm, with excitation at 520 nm. Fluorescence of methanol and untreated blood extracts were used as blanks. A calibration curve with known concentrations of the sensitizer was prepared.

Where [5] appears, read: 1 h incubation, illuminated 15 min at 70 mW/cm^2, read-out: Kd (phototoxicity).

Chain of human serum albumin (HSA) (P02768 25-609): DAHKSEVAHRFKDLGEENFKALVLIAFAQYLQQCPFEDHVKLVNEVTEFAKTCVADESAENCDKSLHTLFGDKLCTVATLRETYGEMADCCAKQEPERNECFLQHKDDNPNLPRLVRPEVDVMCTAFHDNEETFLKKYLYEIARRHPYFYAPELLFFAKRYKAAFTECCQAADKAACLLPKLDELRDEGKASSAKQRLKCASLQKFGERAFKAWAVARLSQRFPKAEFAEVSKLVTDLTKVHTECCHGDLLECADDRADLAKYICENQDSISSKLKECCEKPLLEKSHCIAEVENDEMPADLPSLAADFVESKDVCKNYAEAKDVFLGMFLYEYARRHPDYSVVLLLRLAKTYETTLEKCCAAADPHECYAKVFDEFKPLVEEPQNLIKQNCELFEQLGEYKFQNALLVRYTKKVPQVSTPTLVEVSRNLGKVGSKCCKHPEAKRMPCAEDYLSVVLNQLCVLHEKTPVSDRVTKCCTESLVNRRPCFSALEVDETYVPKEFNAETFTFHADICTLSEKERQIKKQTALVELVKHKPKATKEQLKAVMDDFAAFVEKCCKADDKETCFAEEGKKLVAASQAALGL

For the substance “3^1-Oxo-15-methoxycarbonylmethyl-Rhodo-bacteriochlorin 13^1,17^3-di(2-N^3-trimethylammoniumethyl)amide dicitrate salt [Compound 5]”, in data set [1], the “incubation time at which very high PDT efficiency is reached” value is “less than 5 minutes”. For the same substance, the “sensitivity of St. albus relative to E. coli” value in the data set with St. albus is given as 100 times. Also, on St. albus (setting [5]), the phototoxic killing concentration turned out to be 20 nM. For the same substance, the “death of E. coli” value with E. coli (10 μM, illuminated) was around 100%. The phototoxic concentration in the data set on E. coli (setting [5]) amounted to 1700 nM. Also, in data set [2], the “aggregation state on addition of albumin” value is reported as “disaggregation”. Besides, the “levels of the sensitizer in organs” value in data set [3] (30 min after injection) was “relatively high in the blood, kidneys and lungs”. Also, in data set [3] (24 h after injection), the “level of the sensitizer in the blood” value is “almost background level”; the “levels of the sensitizer in organs” value was “significant levels were still found in the kidneys, liver and spleen”. For the same substance, the clearance kinetics result in data set [4] (24 h after i.v. administration) is “bicompartmental distribution”. In data set [4] (within 30 min after i.v. injection (0.6 mg/kg)), the sensitizer cleared entry was “about 60%”.

For the origin of these results see US8207154B2, “Catatonic bacteriochlorophyll derivatives” (Yeda Research and Development Co., Ltd., priority 2005, dated 2012).
